Data reported in ChEMBL document CHEMBL5291721, “A preclinical secondary pharmacology resource illuminates target-adverse drug reaction associations of marketed drugs” (Nat Commun, 2023).

Key:
Androgen receptor = target: T1, Androgen receptor (Homo sapiens, UniProt P10275)
T1 sequence (P10275 whole entry): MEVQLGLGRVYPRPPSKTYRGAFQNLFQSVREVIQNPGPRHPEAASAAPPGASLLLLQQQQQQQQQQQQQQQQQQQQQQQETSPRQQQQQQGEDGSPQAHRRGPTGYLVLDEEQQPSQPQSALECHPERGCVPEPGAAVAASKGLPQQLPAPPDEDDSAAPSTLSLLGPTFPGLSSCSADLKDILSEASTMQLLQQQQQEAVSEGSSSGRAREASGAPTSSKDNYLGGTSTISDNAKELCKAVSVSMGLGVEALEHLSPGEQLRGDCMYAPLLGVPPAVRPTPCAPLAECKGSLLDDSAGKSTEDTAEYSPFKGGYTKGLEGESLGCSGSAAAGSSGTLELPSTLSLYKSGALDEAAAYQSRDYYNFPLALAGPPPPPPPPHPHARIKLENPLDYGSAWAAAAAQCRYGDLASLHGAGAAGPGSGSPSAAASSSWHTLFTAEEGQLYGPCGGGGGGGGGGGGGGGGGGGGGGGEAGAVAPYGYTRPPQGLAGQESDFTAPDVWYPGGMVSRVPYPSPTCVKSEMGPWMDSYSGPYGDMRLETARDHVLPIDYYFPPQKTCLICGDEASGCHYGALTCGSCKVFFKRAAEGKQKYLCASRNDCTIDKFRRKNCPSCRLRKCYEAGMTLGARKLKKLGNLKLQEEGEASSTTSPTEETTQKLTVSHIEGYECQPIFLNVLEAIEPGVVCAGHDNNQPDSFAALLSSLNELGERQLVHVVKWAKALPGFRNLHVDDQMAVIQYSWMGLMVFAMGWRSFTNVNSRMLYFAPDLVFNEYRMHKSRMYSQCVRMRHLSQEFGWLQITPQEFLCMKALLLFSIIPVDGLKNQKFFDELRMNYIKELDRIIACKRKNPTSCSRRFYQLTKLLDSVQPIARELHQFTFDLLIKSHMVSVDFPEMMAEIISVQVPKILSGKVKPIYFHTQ

[1] = target: Voltage-gated inwardly rectifying potassium channel KCNH2 (Homo sapiens, UniProt Q12809); assay type: functional; details: read-out: AC50
[2] = target: T2, Muscarinic acetylcholine receptor M1 (Homo sapiens, UniProt P11229); assay type: functional, cell-based
T2 sequence (P11229 whole entry): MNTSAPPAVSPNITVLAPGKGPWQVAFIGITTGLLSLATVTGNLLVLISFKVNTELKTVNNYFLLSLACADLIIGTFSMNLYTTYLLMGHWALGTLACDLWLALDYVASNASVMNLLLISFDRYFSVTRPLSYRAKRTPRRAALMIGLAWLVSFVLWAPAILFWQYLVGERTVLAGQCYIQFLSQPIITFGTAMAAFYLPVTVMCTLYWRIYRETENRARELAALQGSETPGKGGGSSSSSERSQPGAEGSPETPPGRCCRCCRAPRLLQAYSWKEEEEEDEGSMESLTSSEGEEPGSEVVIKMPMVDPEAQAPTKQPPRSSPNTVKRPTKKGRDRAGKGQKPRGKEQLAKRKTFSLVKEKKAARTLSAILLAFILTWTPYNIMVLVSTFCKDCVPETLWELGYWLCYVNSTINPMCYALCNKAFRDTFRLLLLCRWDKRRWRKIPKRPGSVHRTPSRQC

[3] = target: T3, 5-hydroxytryptamine receptor 1A (Homo sapiens, UniProt P08908)
T3 sequence (P08908 whole entry): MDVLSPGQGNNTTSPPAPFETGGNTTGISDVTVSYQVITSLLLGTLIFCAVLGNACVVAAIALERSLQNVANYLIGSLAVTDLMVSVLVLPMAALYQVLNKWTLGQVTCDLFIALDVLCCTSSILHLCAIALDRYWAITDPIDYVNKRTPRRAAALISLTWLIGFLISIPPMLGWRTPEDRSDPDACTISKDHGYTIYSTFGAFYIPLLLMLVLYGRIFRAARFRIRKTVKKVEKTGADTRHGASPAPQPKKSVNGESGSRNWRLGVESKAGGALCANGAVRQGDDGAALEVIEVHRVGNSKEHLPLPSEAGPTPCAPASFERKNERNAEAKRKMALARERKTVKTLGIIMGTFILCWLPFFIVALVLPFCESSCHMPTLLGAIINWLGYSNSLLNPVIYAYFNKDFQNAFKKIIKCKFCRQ

[4] = target: Gamma-aminobutyric acid receptor subunit alpha-1/alpha-2/beta-2/gamma-2 (Homo sapiens, UniProt P14867+P18507+P47869+P47870); assay type: protein-complex assay
[5] = target: T2, Muscarinic acetylcholine receptor M1; assay type: functional, cell-based; remark: listed apart in the source
[6] = target: Gamma-aminobutyric acid receptor subunit alpha-1 (Rattus norvegicus, UniProt P62813)
[7] = target: 3',5'-cyclic-AMP phosphodiesterase 4D (Homo sapiens, UniProt Q08499); assay type: functional
Also: assay procedure not described here.

Chain of 3',5'-cyclic-AMP phosphodiesterase 4D (Q08499 whole entry): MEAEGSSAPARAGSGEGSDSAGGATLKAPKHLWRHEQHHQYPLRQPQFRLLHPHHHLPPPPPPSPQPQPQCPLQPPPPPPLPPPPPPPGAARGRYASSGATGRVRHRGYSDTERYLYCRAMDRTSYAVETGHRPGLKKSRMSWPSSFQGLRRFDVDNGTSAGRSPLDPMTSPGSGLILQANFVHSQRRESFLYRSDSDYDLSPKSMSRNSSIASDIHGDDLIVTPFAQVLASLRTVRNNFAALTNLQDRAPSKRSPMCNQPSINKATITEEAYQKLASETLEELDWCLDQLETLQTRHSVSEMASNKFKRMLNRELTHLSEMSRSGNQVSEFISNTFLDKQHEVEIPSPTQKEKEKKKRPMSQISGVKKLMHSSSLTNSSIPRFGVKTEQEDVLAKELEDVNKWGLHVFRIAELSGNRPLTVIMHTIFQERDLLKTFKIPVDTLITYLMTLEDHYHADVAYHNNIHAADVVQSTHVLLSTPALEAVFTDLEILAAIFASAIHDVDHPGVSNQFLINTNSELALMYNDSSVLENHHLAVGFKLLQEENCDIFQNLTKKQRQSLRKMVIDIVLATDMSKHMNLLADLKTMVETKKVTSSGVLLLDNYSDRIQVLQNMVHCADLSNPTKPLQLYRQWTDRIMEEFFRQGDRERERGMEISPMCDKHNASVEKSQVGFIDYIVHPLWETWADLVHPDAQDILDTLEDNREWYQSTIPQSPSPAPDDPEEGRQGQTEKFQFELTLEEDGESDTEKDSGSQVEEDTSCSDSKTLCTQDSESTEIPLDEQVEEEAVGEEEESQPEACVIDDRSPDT
Chain of Gamma-aminobutyric acid receptor subunit alpha-1/alpha-2/beta-2/gamma-2 (P14867 whole entry): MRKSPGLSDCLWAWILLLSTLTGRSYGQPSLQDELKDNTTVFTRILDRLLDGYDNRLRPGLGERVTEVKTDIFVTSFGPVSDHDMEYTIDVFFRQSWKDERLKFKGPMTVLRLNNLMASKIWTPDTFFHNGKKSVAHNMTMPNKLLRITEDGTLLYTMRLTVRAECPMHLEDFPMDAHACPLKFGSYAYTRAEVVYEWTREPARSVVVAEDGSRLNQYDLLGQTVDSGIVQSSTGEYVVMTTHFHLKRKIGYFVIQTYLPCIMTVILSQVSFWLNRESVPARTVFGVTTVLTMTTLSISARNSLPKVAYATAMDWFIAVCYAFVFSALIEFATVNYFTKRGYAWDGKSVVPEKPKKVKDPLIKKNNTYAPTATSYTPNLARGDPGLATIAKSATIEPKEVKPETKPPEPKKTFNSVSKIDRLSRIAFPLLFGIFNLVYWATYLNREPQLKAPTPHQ
Chain of Gamma-aminobutyric acid receptor subunit alpha-1/alpha-2/beta-2/gamma-2 (P47870 whole entry): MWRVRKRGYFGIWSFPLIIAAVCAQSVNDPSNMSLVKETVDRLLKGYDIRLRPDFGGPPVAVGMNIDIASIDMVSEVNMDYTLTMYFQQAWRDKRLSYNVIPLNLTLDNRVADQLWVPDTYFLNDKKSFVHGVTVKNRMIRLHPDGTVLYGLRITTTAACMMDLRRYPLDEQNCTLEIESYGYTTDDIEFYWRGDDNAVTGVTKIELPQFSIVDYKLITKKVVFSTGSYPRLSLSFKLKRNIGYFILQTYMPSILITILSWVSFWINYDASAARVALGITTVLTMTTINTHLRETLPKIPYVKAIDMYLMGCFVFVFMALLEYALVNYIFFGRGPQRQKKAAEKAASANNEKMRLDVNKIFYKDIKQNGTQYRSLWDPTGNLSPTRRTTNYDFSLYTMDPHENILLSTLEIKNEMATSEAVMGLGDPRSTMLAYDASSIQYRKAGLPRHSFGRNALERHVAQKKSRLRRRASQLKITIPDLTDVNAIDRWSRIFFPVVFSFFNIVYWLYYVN
Chain of Gamma-aminobutyric acid receptor subunit alpha-1/alpha-2/beta-2/gamma-2 (P18507 whole entry): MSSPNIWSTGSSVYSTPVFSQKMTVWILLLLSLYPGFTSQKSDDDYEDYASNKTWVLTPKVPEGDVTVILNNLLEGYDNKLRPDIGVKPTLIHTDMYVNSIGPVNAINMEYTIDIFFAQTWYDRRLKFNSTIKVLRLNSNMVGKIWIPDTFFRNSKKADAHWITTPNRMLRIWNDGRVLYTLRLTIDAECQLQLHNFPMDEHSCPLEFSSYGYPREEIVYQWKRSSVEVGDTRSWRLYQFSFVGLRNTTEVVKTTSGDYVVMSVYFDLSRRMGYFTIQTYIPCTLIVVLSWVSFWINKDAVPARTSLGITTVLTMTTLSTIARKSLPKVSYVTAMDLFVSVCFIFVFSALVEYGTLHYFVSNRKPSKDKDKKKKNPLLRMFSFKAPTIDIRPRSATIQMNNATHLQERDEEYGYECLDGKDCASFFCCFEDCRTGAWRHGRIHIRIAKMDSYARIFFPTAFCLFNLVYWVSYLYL
Chain of Gamma-aminobutyric acid receptor subunit alpha-1/alpha-2/beta-2/gamma-2 (P47869 whole entry): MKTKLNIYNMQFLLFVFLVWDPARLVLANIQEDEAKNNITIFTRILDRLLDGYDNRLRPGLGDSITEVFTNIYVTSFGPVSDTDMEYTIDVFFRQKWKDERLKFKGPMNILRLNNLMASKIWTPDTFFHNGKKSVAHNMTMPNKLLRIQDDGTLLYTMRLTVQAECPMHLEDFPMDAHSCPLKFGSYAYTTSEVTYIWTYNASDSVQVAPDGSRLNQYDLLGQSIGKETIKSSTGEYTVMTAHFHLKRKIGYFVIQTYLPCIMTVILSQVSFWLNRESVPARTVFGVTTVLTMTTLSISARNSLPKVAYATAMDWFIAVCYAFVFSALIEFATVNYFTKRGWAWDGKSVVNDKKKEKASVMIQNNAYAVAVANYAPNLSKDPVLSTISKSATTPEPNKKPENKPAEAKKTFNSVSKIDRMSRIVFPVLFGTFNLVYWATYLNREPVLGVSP
Chain of Gamma-aminobutyric acid receptor subunit alpha-1 (P62813 whole entry): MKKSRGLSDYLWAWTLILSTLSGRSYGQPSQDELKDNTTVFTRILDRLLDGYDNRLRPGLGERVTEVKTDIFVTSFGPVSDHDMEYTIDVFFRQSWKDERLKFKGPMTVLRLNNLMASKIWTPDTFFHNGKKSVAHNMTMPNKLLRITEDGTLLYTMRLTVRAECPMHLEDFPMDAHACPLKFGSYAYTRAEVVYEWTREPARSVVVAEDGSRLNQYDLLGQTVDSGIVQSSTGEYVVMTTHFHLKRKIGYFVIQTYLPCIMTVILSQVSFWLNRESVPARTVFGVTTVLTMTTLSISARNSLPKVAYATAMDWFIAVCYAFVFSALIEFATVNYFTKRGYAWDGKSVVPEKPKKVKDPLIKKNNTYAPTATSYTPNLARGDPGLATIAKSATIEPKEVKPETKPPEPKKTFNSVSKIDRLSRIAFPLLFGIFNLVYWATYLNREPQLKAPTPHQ
Chain of Voltage-gated inwardly rectifying potassium channel KCNH2 (Q12809 whole entry): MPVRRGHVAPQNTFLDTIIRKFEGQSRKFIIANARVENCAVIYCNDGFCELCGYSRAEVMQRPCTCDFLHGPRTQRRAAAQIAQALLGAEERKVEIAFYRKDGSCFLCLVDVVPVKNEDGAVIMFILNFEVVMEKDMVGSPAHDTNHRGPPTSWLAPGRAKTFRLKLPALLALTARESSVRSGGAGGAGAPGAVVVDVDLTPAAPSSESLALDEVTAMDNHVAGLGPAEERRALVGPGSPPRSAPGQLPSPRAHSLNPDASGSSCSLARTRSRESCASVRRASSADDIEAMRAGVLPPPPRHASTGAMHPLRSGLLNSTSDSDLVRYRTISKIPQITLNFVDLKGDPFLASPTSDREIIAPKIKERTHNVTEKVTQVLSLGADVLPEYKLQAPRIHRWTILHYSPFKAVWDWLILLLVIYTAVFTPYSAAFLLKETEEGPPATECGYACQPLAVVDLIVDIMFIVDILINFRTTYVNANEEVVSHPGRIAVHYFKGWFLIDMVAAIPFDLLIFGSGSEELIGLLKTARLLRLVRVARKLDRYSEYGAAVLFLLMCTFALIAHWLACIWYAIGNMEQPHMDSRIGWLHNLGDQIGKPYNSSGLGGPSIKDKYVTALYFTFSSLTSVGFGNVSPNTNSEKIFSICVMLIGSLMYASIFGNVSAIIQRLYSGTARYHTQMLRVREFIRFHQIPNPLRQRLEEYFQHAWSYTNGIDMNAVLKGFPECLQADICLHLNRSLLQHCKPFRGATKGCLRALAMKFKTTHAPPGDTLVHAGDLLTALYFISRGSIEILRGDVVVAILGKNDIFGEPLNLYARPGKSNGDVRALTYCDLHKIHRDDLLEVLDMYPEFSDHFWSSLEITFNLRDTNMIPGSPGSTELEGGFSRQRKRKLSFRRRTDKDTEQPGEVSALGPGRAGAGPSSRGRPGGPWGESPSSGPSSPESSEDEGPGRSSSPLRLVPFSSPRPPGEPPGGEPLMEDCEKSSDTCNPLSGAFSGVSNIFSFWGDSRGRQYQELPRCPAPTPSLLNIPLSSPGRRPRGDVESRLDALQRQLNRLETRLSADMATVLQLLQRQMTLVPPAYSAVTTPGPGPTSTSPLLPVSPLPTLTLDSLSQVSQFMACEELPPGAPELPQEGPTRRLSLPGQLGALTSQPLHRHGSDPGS

SMILES	AC50 (Androgen receptor)	AC50 [1]	AC50 [2]	AC50 [3]	AC50 [4]	AC50 [5]	AC50 [6]	AC50 [7]
CC(NCCC(c1ccccc1)c1ccccc1)c1ccccc1 (stereo not drawn) [FENDILINE]	> 30 µM	1.3 µM	26.7 µM	14.9 µM	> 10 µM	–	–	–
CN1C(C(=O)Nc2ccccn2)=C(OC(=O)/C=C/c2ccccc2)c2ccccc2S1(=O)=O [PIROXICAM CINNAMATE]	> 30 µM	> 30 µM	> 30 µM	13.4 µM	> 30 µM	> 30 µM	–	–
CC1(C)C[C@@H]1C(=O)N/C(=C\CCCCSC[C@H](N)C(=O)O)C(=O)O [CILASTATIN]	> 30 µM	> 30 µM	> 30 µM	> 30 µM	–	> 30 µM	> 30 µM	–
COc1ccc(C(=O)c2ccccc2)c(O)c1 [OXYBENZONE]	> 30 µM	> 30 µM	> 30 µM	> 30 µM	–	> 10 µM	> 30 µM	26 µM
CC(O)(CC(=O)O)CC(=O)O [MEGLUTOL]	> 30 µM	> 30 µM	> 30 µM	> 30 µM	–	9.87 µM	> 30 µM	–
CCn1c(=O)c2c(nc(/C=C/c3ccc(OC)c(OC)c3)n2C)n(CC)c1=O [ISTRADEFYLLINE]	–	> 30 µM	> 30 µM	10.5 µM	> 30 µM	> 30 µM	–	1.8 µM
O=NN(CCCl)C(=O)NCCCl [CARMUSTINE]	> 30 µM	–	–	> 30 µM	–	–	> 30 µM	–
NC(=O)N/N=C/c1ccc([N+](=O)[O-])o1 [NITROFURAZONE]	–	> 30 µM	> 30 µM	> 30 µM	> 30 µM	> 30 µM	> 30 µM	–
C[C@@H]1O[C@@H](O[C@H]2C[C@@H](O)[C@]3(CO)[C@H]4[C@H](O)C[C@]5(C)[C@@H](C6=CC(=O)OC6)CC[C@]5(O)[C@@H]4CC[C@]3(O)C2)[C@H](O)[C@H](O)[C@H]1O [OUABAIN]	> 30 µM	> 30 µM	–	> 30 µM	> 30 µM	–	–	–
CCOc1ccc(Cc2nccc3cc(OCC)c(OCC)cc23)cc1OCC [ETHAVERINE]	> 30 µM	13 µM	> 30 µM	> 30 µM	–	1.66 µM	> 30 µM	–
CC1(C)S[C@@H]2[C@H](NC(=O)[C@H](NC(=O)c3cnc4cccnc4c3O)c3ccccc3)C(=O)N2[C@H]1C(=O)O [APALCILLIN]	> 30 µM	–	> 30 µM	> 30 µM	–	> 30 µM	1.25 µM	–
CC(=O)O[C@]1(C(C)=O)CC[C@H]2[C@@H]3CCC4=CC(=O)CCC4=C3[C@@H](c3ccc(N(C)C)cc3)C[C@@]21C [ULIPRISTAL ACETATE]	0.03 µM	–	> 30 µM	> 30 µM	–	> 30 µM	> 30 µM	–
CCCCC(=O)O[C@H]1CC[C@H]2[C@@H]3CCc4cc(O)ccc4[C@H]3CC[C@]12C [ESTRADIOL VALERATE]	–	> 30 µM	> 30 µM	> 30 µM	> 10 µM	23.1 µM	–	–
Cc1ccc(O)c([C@H](CCN(C(C)C)C(C)C)c2ccccc2)c1 [TOLTERODINE]	–	–	> 30 µM	> 30 µM	> 30 µM	0.0206 µM	> 30 µM	–
Cc1ncc(CO)c(CO)c1O [PYRIDOXINE]	–	> 30 µM	> 30 µM	> 30 µM	> 30 µM	> 30 µM	> 30 µM	–
COc1cc(C[C@@H]2NCCc3cc(O)c(O)cc32)cc(OC)c1OC [TRETOQUINOL]	–	> 30 µM	> 30 µM	7.31 µM	> 30 µM	> 30 µM	–	–

SMILES	AC50 (Androgen receptor)	AC50 [1]	AC50 [2]	AC50 [3]	AC50 [4]	AC50 [5]	AC50 [6]	AC50 [7]
COC(=O)N(C)c1c(N)nc(-c2nn(Cc3ccccc3F)c3ncccc23)nc1N [RIOCIGUAT]	> 30 µM	5 µM	> 30 µM	> 30 µM	> 30 µM	> 30 µM	–	–
COc1c(OCCCN2CCOCC2)ccc2c1N=C(NC(=O)c1cnc(N)nc1)N1CCN=C21 [COPANLISIB]	> 30 µM	–	> 30 µM	> 30 µM	–	> 30 µM	> 30 µM	–
OC(CN1CCCCC1)c1cc(-c2ccccc2)on1 (stereo not drawn) [PERISOXAL]	> 30 µM	–	–	> 30 µM	–	–	> 30 µM	–
CO[C@H]1/C=C/O[C@@]2(C)Oc3c(C)c(O)c4c(c3C2=O)C2=NC3(CCN(CC(C)C)CC3)NC2=C(NC(=O)/C(C)=C\C=C\[C@H](C)[C@H](O)[C@@H](C)[C@@H](O)[C@@H](C)[C@H](OC(C)=O)[C@@H]1C)C4=O [RIFABUTIN]	> 30 µM	> 30 µM	–	> 30 µM	> 30 µM	–	–	–
OCc1ccccc1 [BENZYL ALCOHOL]	> 30 µM	> 30 µM	–	> 30 µM	> 30 µM	–	–	–
[H]/N=C(/N)NS(=O)(=O)c1ccc(N)cc1 [SULFAGUANIDINE]	> 30 µM	> 30 µM	> 30 µM	> 30 µM	–	> 30 µM	> 30 µM	–
CC(C)N1CCOC(c2cccc(C(F)(F)F)c2)C1 (stereo not drawn) [OXAFLOZANE]	> 30 µM	> 30 µM	> 30 µM	0.513 µM	> 30 µM	> 30 µM	–	–
Cc1cnc(C(=O)O)c[n+]1[O-] [ACIPIMOX]	–	> 30 µM	> 30 µM	> 30 µM	> 30 µM	> 30 µM	–	–
Oc1ccc(OCc2ccccc2)cc1 [MONOBENZONE]	> 30 µM	> 30 µM	–	> 30 µM	> 30 µM	–	–	–
COC(=O)Nc1nc2cc(C(=O)c3ccc(F)cc3)ccc2[nH]1 [FLUBENDAZOLE]	> 30 µM	> 30 µM	–	> 30 µM	> 30 µM	–	–	–
Cc1ccc2c([nH]c(=O)c3c(=O)cc(C(=O)OCCC(C)C)oc32)c1C	> 30 µM	23 µM	> 30 µM	> 30 µM	> 10 µM	> 30 µM	–	–
CC(C)(C)NCC(O)COc1ccccc1C#N (stereo not drawn) [BUNITROLOL]	> 30 µM	> 30 µM	> 30 µM	0.0086 µM	–	> 30 µM	> 30 µM	> 30 µM
C[C@@H](O)[C@H]1C(=O)N2C(C(=O)O)=C(S[C@@H]3CN[C@H](C(=O)Nc4cccc(C(=O)O)c4)C3)[C@H](C)[C@H]12	> 30 µM	–	–	> 30 µM	–	–	> 30 µM	–
CN1CCCC(CC2c3ccccc3Sc3ccccc32)C1 (stereo not drawn) [METHIXENE]	–	3.1 µM	> 30 µM	1.9 µM	> 30 µM	0.0109 µM	–	–
COc1ncnc(NS(=O)(=O)c2ccc(N)cc2)c1OC [SULFADOXINE]	–	> 30 µM	–	> 30 µM	> 30 µM	–	> 30 µM	–
